Laboratory results: ChEMBL document CHEMBL5518215, “Unlocking Antibacterial Potential: Key-Site-Based Regulation of Antibacterial Spectrum of Peptides” (J Med Chem, 2024)

Columns and labels:
[1] = test system: Escherichia coli; assay: Antimicrobial activity against Escherichia coli 25922 assessed as absence bacterial growth measured after 18 to 24 hrs incubation in presence of NaCl by NCCLS method; type: functional; conditions: time 18-24 hrs
[2] = test system: Escherichia coli; assay: Antimicrobial activity against Escherichia coli 25922 assessed as absence bacterial growth measured after 18 to 24 hrs incubation in presence of ZnCl2 by NCCLS method; type: functional; conditions: time 18-24 hrs
[3] = test system: Bacillus cereus; assay: Antimicrobial activity against Bacillus cereus 1.932 assessed as bacterial killing measured after 16 hrs incubation; type: functional
[4] = test system: Salmonella typhimurium; assay: Antimicrobial activity against Salmonella typhimurium C7731 assessed as absence bacterial growth measured after 18 to 24 hrs incubation by NCCLS method; type: functional, Salmonella enterica subsp. enterica serovar Typhimurium; conditions: Salmonella enterica, time 18-24 hrs
[5] = Hemolytic activity in human RBC at effective concentration at 128 uM measured after 1 hr by microplate reader relative to control; type: toxicity, cell-based, Erythrocyte; conditions: human red blood cells (erythrocytes), read-out: Activity
[6] = test system: Escherichia coli; assay: Antimicrobial activity against Escherichia coli 25922 assessed as absence bacterial growth measured after 18 to 24 hrs incubation in presence of FeCl3 by NCCLS method; type: functional; conditions: time 18-24 hrs
[7] = test system: Escherichia coli; assay: Antimicrobial activity against Escherichia coli 25922 assessed as absence bacterial growth measured after 18 to 24 hrs incubation in presence of NH4Cl by NCCLS method; type: functional; conditions: time 18-24 hrs
[8] = test system: Salmonella typhimurium; assay: Antimicrobial activity against Salmonella typhimurium C7731 assessed as bacterial killing measured after 16 hrs incubation; type: functional, Salmonella enterica subsp. enterica serovar Typhimurium; conditions: Salmonella enterica
[9] = Antimicrobial activity against Salmonella pullorum C7913 assessed as absence bacterial growth measured after 18 to 24 hrs incubation by NCCLS method; type: functional, Salmonella enterica subsp. enterica serovar Pullorum; conditions: Salmonella enterica, time 18-24 hrs
[10] = Cytotoxicity against human HEK-293T cells assessed as cell survival rate measured after 8 hrs by MTT assay; type: toxicity, cell-based
[11] = test system: Bacillus cereus; assay: Antimicrobial activity against Bacillus cereus 1.932 assessed as absence bacterial growth measured after 18 to 24 hrs incubation by NCCLS method; type: functional; conditions: time 18-24 hrs
[12] = test system: Erythrocyte; assay: Hemolytic activity in human RBC at effective concentration measured after 1 hr by microplate reader analysis; type: toxicity, cell-based
[13] = test system: Staphylococcus epidermidis; assay: Antimicrobial activity against Staphylococcus epidermidis 12228 assessed as bacterial killing measured after 16 hrs incubation; type: functional
[14] = test system: Salmonella typhimurium; assay: Antimicrobial activity against Salmonella typhimurium 14028 assessed as bacterial killing measured after 16 hrs incubation; type: functional, Salmonella enterica subsp. enterica serovar Typhimurium; conditions: Salmonella enterica
[15] = test system: Escherichia coli; assay: Antimicrobial activity against Escherichia coli 25922 assessed as absence bacterial growth measured after 18 to 24 hrs incubation in presence of 25% serum by NCCLS method; type: functional; conditions: time 18-24 hrs
[16] = test system: Escherichia coli; assay: Antimicrobial activity against Escherichia coli K88 assessed as absence bacterial growth measured after 18 to 24 hrs incubation by NCCLS method; type: functional; conditions: time 18-24 hrs
[17] = test system: Acinetobacter baumannii; assay: Antimicrobial activity against Acinetobacter baumannii 1.6769 assessed as absence bacterial growth measured after 18 to 24 hrs incubation by NCCLS method; type: functional; conditions: time 18-24 hrs
[18] = test system: Escherichia coli; assay: Antimicrobial activity against Escherichia coli 25922 assessed as bacterial killing measured after 16 hrs incubation; type: functional
[19] = test system: Escherichia coli; assay: Antimicrobial activity against Escherichia coli 25922 assessed as absence bacterial growth measured after 18 to 24 hrs incubation in presence of KCl by NCCLS method; type: functional; conditions: time 18-24 hrs
[20] = Antimicrobial activity against Salmonella pullorum C7913 assessed as bacterial killing measured after 16 hrs incubation; type: functional, Salmonella enterica subsp. enterica serovar Pullorum; conditions: Salmonella enterica
[21] = test system: Listeria monocytogenes; assay: Antimicrobial activity against Listeria monocytogenes 1.10753 assessed as absence bacterial growth measured after 18 to 24 hrs incubation by NCCLS method; type: functional; conditions: time 18-24 hrs
[22] = test system: Escherichia coli; assay: Antimicrobial activity against Escherichia coli 25922 assessed as absence bacterial growth measured after 18 to 24 hrs incubation in presence of MgCl2 by NCCLS method; type: functional; conditions: time 18-24 hrs
[23] = Cytotoxicity against porcine IPEC-J2 cells assessed as cell survival rate measured after 8 hrs by MTT assay; type: toxicity, cell-based, Sus scrofa; conditions: pig
[24] = test system: Escherichia coli; assay: Antimicrobial activity against Escherichia coli 25922 assessed as absence bacterial growth measured after 18 to 24 hrs incubation in presence of 12.5% serum by NCCLS method; type: functional; conditions: time 18-24 hrs
[25] = test system: Staphylococcus aureus; assay: Antimicrobial activity against Methicillin-resistant Staphylococcus aureus 43300 assessed as absence bacterial growth measured after 18 to 24 hrs incubation by NCCLS method; type: functional; conditions: time 18-24 hrs
[26] = test system: Staphylococcus aureus; assay: Antimicrobial activity against Staphylococcus aureus 29213 assessed as absence bacterial growth measured after 18 to 24 hrs incubation by NCCLS method; type: functional; conditions: time 18-24 hrs
[27] = test system: Salmonella typhimurium; assay: Antimicrobial activity against Salmonella typhimurium 14028 assessed as absence bacterial growth measured after 18 to 24 hrs incubation by NCCLS method; type: functional, Salmonella enterica subsp. enterica serovar Typhimurium; conditions: Salmonella enterica, time 18-24 hrs
[28] = test system: Listeria monocytogenes; assay: Antimicrobial activity against Listeria monocytogenes 1.10753 assessed as bacterial killing measured after 16 hrs incubation; type: functional
[29] = test system: Staphylococcus aureus; assay: Antimicrobial activity against Methicillin-resistant Staphylococcus aureus 43300 assessed as bacterial killing measured after 16 hrs incubation; type: functional
[30] = test system: Escherichia coli; assay: Antimicrobial activity against Escherichia coli 25922 assessed as absence bacterial growth measured after 18 to 24 hrs incubation in presence of 50% serum by NCCLS method; type: functional; conditions: time 18-24 hrs
[31] = test system: Escherichia coli; assay: Antimicrobial activity against Escherichia coli 25922 assessed as absence bacterial growth measured after 18 to 24 hrs incubation by NCCLS method; type: functional; conditions: time 18-24 hrs
[32] = Cytotoxicity against mouse RAW264.7 cells assessed as cell survival rate measured after 8 hrs by MTT assay; type: toxicity, cell-based
[33] = test system: Enterococcus faecalis; assay: Antimicrobial activity against Enterococcus faecalis 29212 assessed as bacterial killing measured after 16 hrs incubation; type: functional
[34] = test system: Staphylococcus aureus; assay: Antimicrobial activity against Staphylococcus aureus 29213 assessed as bacterial killing measured after 16 hrs incubation; type: functional
[35] = test system: Staphylococcus aureus; assay: Antimicrobial activity against Staphylococcus aureus 29213 assessed as absence bacterial growth measured after 18 to 24 hrs incubation by NCCLS m; type: functional; conditions: time 18-24 hrs
[36] = test system: Escherichia coli; assay: Antimicrobial activity against Escherichia coli K88 assessed as bacterial killing measured after 16 hrs incubation; type: functional
[37] = test system: Staphylococcus epidermidis; assay: Antimicrobial activity against Staphylococcus epidermidis 12228 assessed as absence bacterial growth measured after 18 to 24 hrs incubation by NCCLS method; type: functional; conditions: time 18-24 hrs
[38] = test system: Pseudomonas aeruginosa; assay: Antimicrobial activity against Pseudomonas aeruginosa 27853 assessed as bacterial killing measured after 16 hrs incubation; type: functional
[39] = test system: Staphylococcus aureus; assay: Antimicrobial activity against Staphylococcus aureus 25923 assessed as bacterial killing measured after 16 hrs incubation; type: functional
[40] = test system: Pseudomonas aeruginosa; assay: Antimicrobial activity against Pseudomonas aeruginosa 27853 assessed as absence bacterial growth measured after 18 to 24 hrs incubation by NCCLS method; type: functional; conditions: time 18-24 hrs
[41] = test system: Enterococcus faecalis; assay: Antimicrobial activity against Enterococcus faecalis 29212 assessed as absence bacterial growth measured after 18 to 24 hrs incubation by NCCLS method; type: functional; conditions: time 18-24 hrs
[42] = test system: Acinetobacter baumannii; assay: Antimicrobial activity against Acinetobacter baumannii 1.6769 assessed as bacterial killing measured after 16 hrs incubation; type: functional

**Q.** With H-VKLWLKGGKLWLKGGKLWLKG-NH2 as the substance, how does the MIC [1] read?
**A.** > 32 µM

**Q.** What about the MIC [2] of the same substance?
**A.** 4 µM

**Q.** What about the MBC [3] of the same substance?
**A.** > 32 µM

**Q.** And the MIC [4]?
**A.** 8 µM

**Q.** What about the hemolysis at 1 h, 128 µM [5] of the same substance?
**A.** < 10%

**Q.** And the MIC [6]?
**A.** 4 µM

**Q.** And the MIC [7]?
**A.** 8 µM

**Q.** And the MBC [8]?
**A.** 32 µM

**Q.** What about the MIC [9] of the same substance?
**A.** 2 µM

**Q.** And the IC50 at 8 h [10]?
**A.** > 64 µM

**Q.** What about the MIC [11] of the same substance?
**A.** > 32 µM

**Q.** What about the HC10 [12] of the same substance?
**A.** > 128 µM

**Q.** And the MBC [13]?
**A.** > 32 µM

**Q.** And the MBC [14]?
**A.** 16 µM

**Q.** What about the MIC [15] of the same substance?
**A.** 32 µM

**Q.** And the MIC [16]?
**A.** 1 µM

**Q.** And the MIC [17]?
**A.** 4 µM

**Q.** What about the MBC [18] of the same substance?
**A.** 16 µM

**Q.** And the MIC [19]?
**A.** 4 µM

**Q.** What about the MBC [20] of the same substance?
**A.** 4 µM

**Q.** And the MIC [21]?
**A.** > 32 µM

**Q.** And the MIC [22]?
**A.** > 32 µM

**Q.** And the IC50 at 8 h [23]?
**A.** 60.2 µM

**Q.** And the MIC [24]?
**A.** 16 µM

**Q.** And the MIC [25]?
**A.** > 32 µM

**Q.** What about the MIC [26] of the same substance?
**A.** > 32 µM

**Q.** And the MIC [27]?
**A.** 8 µM

**Q.** What about the MBC [28] of the same substance?
**A.** > 32 µM

**Q.** What about the MBC [29] of the same substance?
**A.** > 32 µM

**Q.** What about the MIC [30] of the same substance?
**A.** > 32 µM

**Q.** What about the MIC [31] of the same substance?
**A.** 4 µM

**Q.** What about the IC50 at 8 h [32] of the same substance?
**A.** > 64 µM

**Q.** What about the MBC [33] of the same substance?
**A.** > 32 µM

**Q.** And the MBC [34]?
**A.** > 32 µM

**Q.** And the MIC [35]?
**A.** > 32 µM

**Q.** What about the MBC [36] of the same substance?
**A.** 1 µM

**Q.** And the MIC [37]?
**A.** > 32 µM

**Q.** And the MBC [38]?
**A.** > 32 µM

**Q.** What about the MBC [39] of the same substance?
**A.** > 32 µM

**Q.** What about the MIC [40] of the same substance?
**A.** > 32 µM

**Q.** And the MIC [41]?
**A.** > 32 µM

**Q.** And the MBC [42]?
**A.** 16 µM

**Q.** Which results are given for H-CKLWLKGGKLWLKGGKLWLKG-NH2?
**A.** MIC [1]: > 32 µM; MIC [2]: > 32 µM; MBC [3]: > 32 µM; MIC [4]: > 32 µM; hemolysis at 1 h, 128 µM [5]: < 10%; MIC [6]: > 32 µM; MIC [7]: > 32 µM; MBC [8]: > 32 µM; MIC [9]: 2 µM; IC50 at 8 h [10]: > 64 µM; MIC [11]: > 32 µM; HC10 [12]: > 128 µM; MBC [13]: > 32 µM; MBC [14]: > 32 µM; MIC [15]: > 32 µM; MIC [16]: 2 µM; MIC [17]: > 32 µM; MBC [18]: > 32 µM; MIC [19]: > 32 µM; MBC [20]: 2 µM; MIC [21]: > 32 µM; MIC [22]: > 32 µM; IC50 at 8 h [23]: 14.3 µM; MIC [24]: 32 µM; MIC [25]: > 32 µM; MIC [26]: > 32 µM; MIC [27]: > 32 µM; MBC [28]: > 32 µM; MBC [29]: > 32 µM; MIC [30]: > 32 µM; MIC [31]: > 32 µM; IC50 at 8 h [32]: 60.1 µM; MBC [33]: > 32 µM; MBC [34]: > 32 µM; MIC [35]: > 32 µM; MBC [36]: 2 µM; MIC [37]: > 32 µM; MBC [38]: > 32 µM; MBC [39]: > 32 µM; MIC [40]: > 32 µM; MIC [41]: > 32 µM; MBC [42]: > 32 µM
